Measured values reported in ChEMBL document CHEMBL6074686 (Eur J Med Chem, 2025).
Activity calls are given as the source filed them. The calls are words filed in the database; no cut-off is given here.

Key:
SK-OV-3 [1] = assay: Inhibition of cell migration in human SK-OV-3 cells assessed as wound closure ratio at 25 nM incubated for 24 hrs by wound healing assay (reference value: 100%); type: functional; parameters: scale not given: the % may be the effect or the level left
MCF7 [2] = assay: Inhibition of cell migration in human MCF7 cells assessed as area of migrated cells at 25 nM incubated for 24 hrs by crystal violet staining based inverted microscopic analysis (reference value: 18.5 +/- 0.3 mm^3); type: functional
SK-OV-3 [3] = assay: Inhibition of colony formation in human SK-OV-3 cells incubated for 12 days by crystal violet staining based assay; type: functional, cell-based; conditions: dose 1.25-20 nM, time 12.0 day
SK-OV-3 [4] = assay: Inhibition of cell migration in human SK-OV-3 cells assessed as wound closure ratio at 6.25 nM incubated for 24 hrs by wound healing assay (reference value: 100%); type: functional; parameters: scale not given: the % may be the effect or the level left
SK-OV-3 [5] = assay: Inhibition of cell migration in human SK-OV-3 cells assessed as reduction in wound closure at 6.25 nM incubated for 24 hrs by wound healing assay (reference value: 21.8 +/- 7.6%); type: functional; conditions: SK-OV-3, 24 h, values are per cent of control
SK-OV-3 [6] = assay: Induction of cell cycle arrest in human SK-OV-3 cells assessed as downregulation of Cdc-2 expression at 100 nM incubated for 24 hrs by Western blotting analysis; type: functional, cell-based
SK-OV-3 [7] = assay: Inhibition of cell migration in human SK-OV-3 cells assessed as area of migrated cells at 20 nM incubated for 24 hrs by crystal violet staining based inverted microscopic analysis (reference value: 30.1 +/- 1.3 mm^3); type: functional
SK-OV-3 [8] = assay: Inhibition of cell migration in human SK-OV-3 cells incubated for 24 hrs by Transwell assay; type: functional, cell-based; conditions: dose 10-20 nM
SK-OV-3 [9] = assay: Induction of cell cycle arrest in human SK-OV-3 cells assessed as downregulation of Cdc-25c expression incubated for 24 hrs by Western blotting analysis; type: functional, cell-based; conditions: dose 25-100 nM
MCF7 [10] = assay: Inhibition of cell migration in human MCF7 cells assessed as ratio of migrated cells at 3.125 nM incubated for 24 hrs by crystal violet staining based inverted microscopic analysis (reference value: 100%); type: functional; parameters: scale not given: the % may be the effect or the level left
MCF7 [11] = assay: Inhibition of cell migration in human MCF7 cells assessed as area of migrated cells at 6.25 nM incubated for 24 hrs by crystal violet staining based inverted microscopic analysis (reference value: 18.5 +/- 0.3 mm^3); type: functional
MCF7 [12] = assay: Inhibition of cell migration in human MCF7 cells assessed as area of migrated cells at 50 nM incubated for 24 hrs by crystal violet staining based inverted microscopic analysis (reference value: 18.5 +/- 0.3 mm^3); type: functional
A549 = assay: Induction of cell cycle arrest in human A549 cells assessed as accumulation of cells at G2/M phase at 40 nM incubated for 24 hrs by PI staining based flow cytometric analysis relative to control; type: functional
SK-OV-3 [13] = assay: Antitumor activity against human SK-OV-3 cells xenografted in female BALB/c nude mouse assessed as tumor growth inhibition at 5 mg/kg, […] via tail vein once every 2 to 3 days; type: functional; conditions: time 2-3 day, read-out: TGI
SK-OV-3 [14] = assay: Inhibition of cell migration in human SK-OV-3 cells assessed as area of migrated cells at 10 nM incubated for 24 hrs by crystal violet staining based inverted microscopic analysis (reference value: 30.1 +/- 1.3 mm^3); type: functional
MCF7 [15] = assay: Inhibition of cell migration in human MCF7 cells assessed as wound closure at 2.5 nM incubated for 24 hrs by wound healing assay (reference value: 44.5 +/- 8.8%); type: functional; parameters: scale not given: the % may be the effect or the level left
MCF7 [16] = assay: Inhibition of cell migration in human MCF7 cells assessed as area of migrated cells at 12.5 nM incubated for 24 hrs by crystal violet staining based inverted microscopic analysis (reference value: 18.5 +/- 0.3 mm^3); type: functional
SK-OV-3 [17] = assay: Inhibition of cell migration in human SK-OV-3 cells assessed as area of migrated cells at 5 nM incubated for 24 hrs by crystal violet staining based inverted microscopic analysis (reference value: 30.1 +/- 1.3 mm^3); type: functional
SK-OV-3 [18] = assay: Induction of apoptosis in human SK-OV-3 cells assessed as upregulation of Bax expression at 100 nM incubated for 24 hrs by Western blotting analysis; type: functional, cell-based
SK-OV-3 [19] = assay: Induction of apoptosis in human SK-OV-3 cells assessed as Bax expression at 25 to 50 nM incubated for 24 hrs by Western blotting analysis; type: functional, cell-based; conditions: dose 25-50 nM
[20] = Toxicity in female BALB/c nude mouse xenografted with human SK-OV-3 cells assessed as drug tolerance reduction in food intake at 30 mg/kg, administered via tail vein for 5 days and measured daily; type: organism-based; conditions: in vivo, iv, 120 h, time 5 day
MCF7 [21] = assay: Inhibition of cell migration in human MCF7 cells assessed as ratio of migrated cells at 25 nM incubated for 24 hrs by crystal violet staining based inverted microscopic analysis (reference value: 100%); type: functional; parameters: scale not given: the % may be the effect or the level left
MCF7 [22] = assay: Inhibition of cell migration in human MCF7 cells assessed as wound closure at 10 nM incubated for 24 hrs by wound healing assay (reference value: 44.5 +/- 8.8%); type: functional; parameters: scale not given: the % may be the effect or the level left
MCF7 [23] = assay: Inhibition of cell migration in human MCF7 cells assessed as wound closure at 1.25 nM incubated for 24 hrs by wound healing assay (reference value: 44.5 +/- 8.8%); type: functional; parameters: scale not given: the % may be the effect or the level left
SK-OV-3 [24] = assay: Induction of cell cycle arrest in human SK-OV-3 cells assessed as increase in G2/M phase cells at 2.5 nM incubated for 24 hrs PI staining based flow cytometric analysis (reference value: 24.6 +/- 2.0%); type: functional
SK-OV-3 [25] = assay: Inhibition of cell migration in human SK-OV-3 cells assessed as wound closure ratio at 3.125 nM incubated for 24 hrs by wound healing assay (reference value: 100%); type: functional; parameters: scale not given: the % may be the effect or the level left
MCF7 [26] = assay: Inhibition of colony formation in human MCF7 cells incubated for 72 hrs by crystal violet staining based assay; type: functional, cell-based; conditions: dose 3.125-50 nM
SK-OV-3 [27] = assay: Inhibition of cell migration in human SK-OV-3 cells assessed as decrease in cell density incubated for 24 hrs by wound healing assay; type: functional, cell-based; conditions: dose 3.125-50 nM
MCF7 [28] = assay: Inhibition of colony formation in human MCF7 cells at 3.125 to 50 nM by crystal violet staining based assay; type: functional, cell-based; conditions: dose 3.125-50 nM, time 0-72 hrs
[29] = Toxicity in female BALB/c nude mouse xenografted with human SK-OV-3 cells assessed as effect on body weight at 5 to 10 mg/kg, […] via tail vein once every 2 to 3 days; type: organism-based; conditions: in vivo, dose lower 5 mg/kg, time lower 2 day, dose upper 10 mg/kg, time upper 3 day
SK-OV-3 [30] = assay: Induction of apoptosis in human SK-OV-3 cells assessed as upregulation of cleaved-PARP expression at 25 to 50 nM incubated for 24 hrs by Western blotting analysis; type: functional, cell-based; conditions: dose 25-50 nM
SK-OV-3 [31] = assay: Inhibition of cell migration in human SK-OV-3 cells assessed as area of migrated cells at 2.5 nM incubated for 24 hrs by crystal violet staining based inverted microscopic analysis (reference value: 30.1 +/- 1.3 mm^3); type: functional
SK-OV-3 [32] = assay: Antitumor activity against human SK-OV-3 cells xenografted in female BALB/c nude mouse assessed as tumor growth inhibition at 10 mg/kg, […] via tail vein once every 2 to 3 days; type: functional; conditions: time 2-3 day, read-out: TGI
MCF7 [33] = assay: Induction of apoptosis in human MCF7 cells assessed as upregulation of Bax expression at 100 nM incubated for 24 hrs by Western blotting analysis; type: functional, cell-based

CNc1nc(N2CCCc3cc(OC)ccc32)c2cc(F)ccc2n1
Activity (SK-OV-3 [1]): 51.4% | Activity (MCF7 [2]): 2.4 mm3 | inhibition (SK-OV-3 [3]): Dose-dependent-effect | Activity (SK-OV-3 [4]): 84.3% | response, % of control at 0.00625 µM (SK-OV-3 [5]): 18.4% | Activity (SK-OV-3 [6]): inactive | Activity (SK-OV-3 [7]): 3.6 mm3 | inhibition (SK-OV-3 [8]): Dose-dependent-effect | Activity (SK-OV-3 [9]): Dose-dependent-effect | Activity (MCF7 [10]): 94.5% | Activity (MCF7 [11]): 16.4 mm3 | Activity (MCF7 [12]): 2.2 mm3 | Activity (A549): 88.8% | inhibition in vivo at 5 mg/kg (SK-OV-3 [13]): 34.1% | Activity (SK-OV-3 [14]): 6.8 mm3 | Activity (MCF7 [15]): 44% | Activity (MCF7 [16]): 11.2 mm3 | Activity (SK-OV-3 [17]): 14.7 mm3 | Activity (SK-OV-3 [18]): Active | Activity (SK-OV-3 [19]): inactive | Activity [20]: Toxic | Activity (MCF7 [21]): 13.2% | Activity (MCF7 [22]): 46.5% | Activity (MCF7 [23]): 47% | Activity (SK-OV-3 [24]): 25.3% | Activity (SK-OV-3 [25]): 104.5% | inhibition (MCF7 [26]): Dose-dependent-effect | inhibition (SK-OV-3 [27]): Dose-dependent-effect | inhibition (MCF7 [28]): Time-dependent-effect | Activity [29]: Non-toxic | Activity (SK-OV-3 [30]): Active | Activity (SK-OV-3 [31]): 18.9 mm3 | inhibition in vivo at 10 mg/kg (SK-OV-3 [32]): 46.2% | Activity (MCF7 [33]): Active
